Results taken from patent publication US6914045B2, “Glycopeptide antibiotics” (Wyeth Holdings Corporation, priority 2001, dated 2005).
≈ marks a conversion by molar mass, not a printed value.

Assays:
Experiment in all cases: in vitro antibacterial evaluation, MIC by broth dilution
Assay type in all cases: cell-based
Streptococcus sp. = details: broth dilution, 18 hours at 35° C.
How it was run: (§1)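 MIC = lowest antibiotic concentration preventing visible growth; inoculum 5×10^5 CFU/mL; drug range 64-0.06 μg/mL; Muller-Hinton II […]; NCCLS M7-A2 guidance.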

Enterococcus sp. = details: broth dilution, 18 hours at 35° C.
How it was run: as §1

Staphylococcus sp. = details: broth dilution, 18 hours at 35° C.; for MIC Staphylococcus aureus (GC 1131): strain GC 1131
How it was run: as §1

Escherichia coli = tested on: Escherichia coli
How it was run: as §1

## CC(c1ccccc1)C1NC(=O)CNC(=O)C(CO)NC(=O)C(C(O)C2CNC(=N)N2C2OC(CO)C(O)C(O)C2O)NC(=O)C(C(O)C2CNC(=N)N2)NC(=O)C(Cc2ccc(OC3OC(CO)C(OC4OC5COC(c6ccc7ccccc7c6)OC5C(O)C4O)C(O)C3O)cc2)NC1=O (stereo not drawn) [Example 145]
Streptococcus sp.; Streptococcus agalactiae (GC 4564)
  MIC Streptococcus agalactiae (GC 4564): <0.5 µg/mL
Streptococcus sp.; Streptococcus pneumoniae (ATCC 6301)
  MIC Streptococcus pneumoniae (ATCC 6301): <0.5 µg/mL
Streptococcus sp.; Streptococcus pneumoniae (GC 1894)
  MIC Streptococcus pneumoniae (GC 1894): <0.5 µg/mL
Streptococcus sp.; Streptococcus pneumoniae (GC 4565)
  MIC Streptococcus pneumoniae (GC 4565): <0.5 µg/mL
Streptococcus sp.; Streptococcus pyogenes (GC 4563)
  MIC Streptococcus pyogenes (GC 4563): 1 µg/mL (≈ 0.698 µM)
Streptococcus sp.; strain ATCC 6301
  MIC Streptococcus pneumoniae (ATCC 6301): <0.5 µg/mL
Streptococcus sp.; strain GC 1894
  MIC Streptococcus pneumoniae (GC 1894): <0.5 µg/mL
Streptococcus sp.; strain GC 4563
  MIC Streptococcus pyogenes (GC 4563): 1 µg/mL (≈ 0.698 µM)
Streptococcus sp.; strain GC 4564
  MIC Streptococcus agalactiae (GC 4564): <0.5 µg/mL
Streptococcus sp.; strain GC 4565
  MIC Streptococcus pneumoniae (GC 4565): <0.5 µg/mL
Enterococcus sp.; Enterococcus avium (GC 4558)
  MIC Enterococcus avium (GC 4558): 1 µg/mL (≈ 0.698 µM)
Enterococcus sp.; Enterococcus faecalis (ATCC 29212)
  MIC Enterococcus faecalis (ATCC 29212): 1 µg/mL (≈ 0.698 µM)
Enterococcus sp.; Enterococcus faecalis (GC 2242)
  MIC Enterococcus faecalis (GC 2242): <0.5 µg/mL
Enterococcus sp.; Enterococcus faecalis (GC 2691)
  MIC Enterococcus faecalis (GC 2691): 1 µg/mL (≈ 0.698 µM)
Enterococcus sp.; Enterococcus faecalis (GC 3059)
  MIC Enterococcus faecalis (GC 3059): 1 µg/mL (≈ 0.698 µM)
Enterococcus sp.; Enterococcus faecalis (GC 4552)
  MIC Enterococcus faecalis (GC 4552): 1 µg/mL (≈ 0.698 µM)
Enterococcus sp.; Enterococcus faecalis (GC 4553)
  MIC Enterococcus faecalis (GC 4553): 2 µg/mL (≈ 1.4 µM)
Enterococcus sp.; Enterococcus faecalis (GC 4554)
  MIC Enterococcus faecalis (GC 4554): 1 µg/mL (≈ 0.698 µM)
Enterococcus sp.; Enterococcus faecalis (GC 6189)
  MIC Enterococcus faecalis (GC 6189): 1 µg/mL (≈ 0.698 µM)
Enterococcus sp.; Enterococcus faecium (GC 2243)
  MIC Enterococcus faecium (GC 2243): 1 µg/mL (≈ 0.698 µM)
Enterococcus sp.; Enterococcus faecium (GC 4556)
  MIC Enterococcus faecium (GC 4556): 1 µg/mL (≈ 0.698 µM)
Enterococcus sp.; Enterococcus faecium (GC 4557)
  MIC Enterococcus faecium (GC 4557): 1 µg/mL (≈ 0.698 µM)
Enterococcus sp.; strain ATCC 29212
  MIC Enterococcus faecalis (ATCC 29212): 1 µg/mL (≈ 0.698 µM)
Enterococcus sp.; strain GC 2242
  MIC Enterococcus faecalis (GC 2242): <0.5 µg/mL
Enterococcus sp.; strain GC 2243
  MIC Enterococcus faecium (GC 2243): 1 µg/mL (≈ 0.698 µM)
Enterococcus sp.; strain GC 2691
  MIC Enterococcus faecalis (GC 2691): 1 µg/mL (≈ 0.698 µM)
Enterococcus sp.; strain GC 3059
  MIC Enterococcus faecalis (GC 3059): 1 µg/mL (≈ 0.698 µM)
Enterococcus sp.; strain GC 4552
  MIC Enterococcus faecalis (GC 4552): 1 µg/mL (≈ 0.698 µM)
Enterococcus sp.; strain GC 4553
  MIC Enterococcus faecalis (GC 4553): 2 µg/mL (≈ 1.4 µM)
Enterococcus sp.; strain GC 4554
  MIC Enterococcus faecalis (GC 4554): 1 µg/mL (≈ 0.698 µM)
Enterococcus sp.; strain GC 4556
  MIC Enterococcus faecium (GC 4556): 1 µg/mL (≈ 0.698 µM)
Enterococcus sp.; strain GC 4557
  MIC Enterococcus faecium (GC 4557): 1 µg/mL (≈ 0.698 µM)
Enterococcus sp.; strain GC 4558
  MIC Enterococcus avium (GC 4558): 1 µg/mL (≈ 0.698 µM)
Enterococcus sp.; strain GC 6189
  MIC Enterococcus faecalis (GC 6189): 1 µg/mL (≈ 0.698 µM)
Staphylococcus sp.; inoculum 5×10^5 CFU/mL
  MIC Staphylococcus aureus (GC 1131): <0.5 µg/mL
Staphylococcus sp.; strain ATCC 29213
  MIC Staphylococcus aureus (ATCC 29213): 1 µg/mL (≈ 0.698 µM)
Staphylococcus sp.
  MIC Staphylococcus aureus (GC 1131): <0.5 µg/mL
Staphylococcus sp.; strain GC 3051
  MIC Staphylococcus aureus (GC 3051): 1 µg/mL (≈ 0.698 µM)
Staphylococcus sp.; strain GC 3053
  MIC Staphylococcus aureus (GC 3053): 1 µg/mL (≈ 0.698 µM)
Staphylococcus sp.; strain GC 4541
  MIC Staphylococcus aureus (GC 4541): <0.5 µg/mL
Staphylococcus sp.; strain GC 4542
  MIC Staphylococcus aureus (GC 4542): <0.5 µg/mL
Staphylococcus sp.; strain GC 4543
  MIC Staphylococcus aureus-SMITH (GC 4543): <0.5 µg/mL
Staphylococcus sp.; strain GC 4544
  MIC Staphylococcus aureus (GC 4544): 1 µg/mL (≈ 0.698 µM)
Staphylococcus sp.; strain GC 4545
  MIC Staphylococcus aureus (GC 4545): 1 µg/mL (≈ 0.698 µM)
Staphylococcus sp.; strain GC 4546
  MIC Staphylococcus haemolyticus (GC 4546): <0.5 µg/mL
Staphylococcus sp.; strain GC 4547
  MIC Coagulase Negative Staphylococcus (GC 4547): 1 µg/mL (≈ 0.698 µM)
Staphylococcus sp.; strain GC 4548
  MIC Coagulase Negative Staphylococcus (GC 4548): <0.5 µg/mL
Staphylococcus sp.; strain GC 4549
  MIC Coagulase Negative Staphylococcus (GC 4549): 1 µg/mL (≈ 0.698 µM)
Staphylococcus sp.; strain GC 4551
  MIC Coagulase Negative Staphylococcus (GC 4551): <0.5 µg/mL
Staphylococcus sp.; strain GC 6257
  MIC Coagulase Negative Staphylococcus (GC 6257): 0.5 µg/mL (≈ 0.349 µM)
Staphylococcus sp.; strain SMITH GC 4543
  MIC Staphylococcus aureus-SMITH (GC 4543): <0.5 µg/mL
Escherichia coli; strain ATCC 25922, 18 hours at 35° C.
  MIC Escherichia coli (ATCC 25922): 64 µg/mL (≈ 44.6 µM)
Escherichia coli; strain GC 4559, 18 hours at 35° C.
  MIC Escherichia coli (GC 4559): 32 µg/mL (≈ 22.3 µM)
Escherichia coli; strain GC 4560, 18 hours at 35° C.
  MIC Escherichia coli (GC 4560): <0.5 µg/mL
